Tests used:
[1] = test system: beet armyworm (BAW; Spodoptera exigua: Lepidoptera); test: 96-well microtiter plate-based high throughput (HTS) diet bioassay on beet armyworm (BAW HTS); assay type: in vivo; conditions: BAW eggs, 12 μg test compound per well, mortality at 6 d post-treatment, mortality class
Outline: (§1)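 In the HTS format, eggs were placed on diet surface-treated with 12 μg compound per well, held dark at 29° C, and scored for mortality at 6 d (mean of six replicates). The tray format used three to five second instar larvae on diet treated at 50 μg/cm^2, 25° C, 14:10 light-dark, six days, averaged over eight wells.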

[2] = test system: beet armyworm (BAW; Spodoptera exigua: Lepidoptera); test: 128-well diet tray assay on beet armyworm (BAW 50); assay type: in vivo; conditions: 128-well diet tray assay; 50 μg/cm^2 of test compound on diet; second instar BAW larvae; mortality class
Outline: as §1

[3] = 96-well microtiter plate HTS diet assay

Structure (SMILES) | BAW HTS ([1]; 96-well HTS diet bioassay) | BAW HTS [1, 3] | BAW 50 ug/cm2 [2]
COC1C(C)OC(ON=Cc2ccc(-n3cnc(-c4ccc(C(F)(F)F)cc4)c3)cc2)C(OC)C1OC (stereo not drawn) [Compound 57] | A (the compound was tested and at least 50 percent mortality was observed) | A (the compound was tested and at least 50 percent mortality was observed) | A (the compound was tested and at least 50 percent mortality was observed)
COC1C(C)OC(ON=Cc2cccc(-c3cn(-c4ccc(OC(F)(F)F)cc4)cn3)c2)C(OC)C1OC (stereo not drawn) [Compound 58] | A (the compound was tested and at least 50 percent mortality was observed) | A (the compound was tested and at least 50 percent mortality was observed) | A (the compound was tested and at least 50 percent mortality was observed)
COC1C(C)OC(ON=Cc2ccc(-c3cn(-c4ccc(OC(F)(F)F)c(C(F)(F)F)c4)cn3)cc2)C(OC)C1OC (stereo not drawn) [Compound 59] | A (the compound was tested and at least 50 percent mortality was observed) | A (the compound was tested and at least 50 percent mortality was observed) | A (the compound was tested and at least 50 percent mortality was observed)
CCCc1ccc(-c2cc(-c3ccc(C=NOC4OC(C)C(OC)C(OC)C4OC)cc3)no2)cc1 (stereo not drawn) [Compound 60] | A (the compound was tested and at least 50 percent mortality was observed) | A (the compound was tested and at least 50 percent mortality was observed) | A (the compound was tested and at least 50 percent mortality was observed)
CCCCOc1ccc(-c2cc(-c3ccc(C=NOC4OC(C)C(OC)C(OC)C4OC)cc3)no2)cc1 (stereo not drawn) [Compound 61] | A (the compound was tested and at least 50 percent mortality was observed) | A (the compound was tested and at least 50 percent mortality was observed) | A (the compound was tested and at least 50 percent mortality was observed)
COc1ccc(-c2nc(-c3ccc(C=NOC4OC(C)C(OC)C(OC)C4OC)cc3)cs2)cc1 (stereo not drawn) [Compound 62] | A (the compound was tested and at least 50 percent mortality was observed) | A (the compound was tested and at least 50 percent mortality was observed) | A (the compound was tested and at least 50 percent mortality was observed)
COC1C(C)OC(ON=Cc2ccc(-c3csc(-c4ncc(C(F)(F)F)cc4Cl)n3)cc2)C(OC)C1OC (stereo not drawn) [Compound 63] | A (the compound was tested and at least 50 percent mortality was observed) | A (the compound was tested and at least 50 percent mortality was observed) | A (the compound was tested and at least 50 percent mortality was observed)
COC1C(C)OC(ON=Cc2ccc(-c3csc(-c4ccc(OCC(F)(F)F)nc4)n3)cc2)C(OC)C1OC (stereo not drawn) [Compound 64] | A (the compound was tested and at least 50 percent mortality was observed) | A (the compound was tested and at least 50 percent mortality was observed) | A (the compound was tested and at least 50 percent mortality was observed)
COC1C(C)OC(ON=Cc2ccc(-c3csc(-c4ccc(C(F)(F)F)cc4)n3)cc2)C(OC)C1OC (stereo not drawn) [Compound 65] | A (the compound was tested and at least 50 percent mortality was observed) | A (the compound was tested and at least 50 percent mortality was observed) | A (the compound was tested and at least 50 percent mortality was observed)
COC1C(C)OC(ON=Cc2ccc(-c3csc(-c4ccc(C(F)(F)F)nc4)n3)cc2)C(OC)C1OC (stereo not drawn) [Compound 66] | A (the compound was tested and at least 50 percent mortality was observed) | A (the compound was tested and at least 50 percent mortality was observed) | A (the compound was tested and at least 50 percent mortality was observed)
COC1C(C)OC(ON=Cc2ccc(-c3ccn(-c4ccc(OC(F)(F)F)cc4)c3)cc2)C(OC)C1OC (stereo not drawn) [Compound 67] | B (either (1) the compound was tested and less than 50 percent mortality was observed or (2) the compound was not tested) | B (either (1) the compound was tested and less than 50 percent mortality was observed or (2) the compound was not tested) | A (the compound was tested and at least 50 percent mortality was observed)
CCOC1C(OC)C(C)OC(ON=Cc2ccc(C3=NC(c4ccc(OC(F)(F)F)cc4)CO3)cc2)C1OC (stereo not drawn) [Compound 68] | B (either (1) the compound was tested and less than 50 percent mortality was observed or (2) the compound was not tested) | B (either (1) the compound was tested and less than 50 percent mortality was observed or (2) the compound was not tested) | A (the compound was tested and at least 50 percent mortality was observed)
CO[C@@H]1[C@@H](OC)[C@H](C)O[C@@H](O/N=C/c2ccc(-n3cnc(-c4ccc(Cl)cn4)n3)cc2)[C@@H]1OC [Compound 69] | B (either (1) the compound was tested and less than 50 percent mortality was observed or (2) the compound was not tested) | B (either (1) the compound was tested and less than 50 percent mortality was observed or (2) the compound was not tested) | B (either (1) the compound was tested and less than 50 percent mortality was observed or (2) the compound was not tested)
CO[C@@H]1[C@@H](OC)[C@H](C)O[C@@H](O/N=C/c2ccc(-n3cnc(-c4ccccc4F)n3)cc2)[C@@H]1OC [Compound 70] | A (the compound was tested and at least 50 percent mortality was observed) | A (the compound was tested and at least 50 percent mortality was observed) | B (either (1) the compound was tested and less than 50 percent mortality was observed or (2) the compound was not tested)
CO[C@@H]1[C@@H](OC)[C@H](C)O[C@@H](O/N=C/c2ccc(-n3cnc(-c4cccnc4)n3)cc2)[C@@H]1OC [Compound 71] | A (the compound was tested and at least 50 percent mortality was observed) | A (the compound was tested and at least 50 percent mortality was observed) | B (either (1) the compound was tested and less than 50 percent mortality was observed or (2) the compound was not tested)
COC1C(C)OC(ON=Cc2ccc(-n3cnc(-c4ccc(C(F)(F)F)cc4)n3)cc2)C(OC)C1OC (stereo not drawn) [Compound 72] | A (the compound was tested and at least 50 percent mortality was observed) | A (the compound was tested and at least 50 percent mortality was observed) | A (the compound was tested and at least 50 percent mortality was observed)
CO[C@@H]1[C@@H](OC)[C@H](C)O[C@@H](O/N=C/c2ccc(C3=NN(c4ccccc4)CC3)cc2)[C@@H]1OC [Compound 73] | B (either (1) the compound was tested and less than 50 percent mortality was observed or (2) the compound was not tested) | B (either (1) the compound was tested and less than 50 percent mortality was observed or (2) the compound was not tested) | A (the compound was tested and at least 50 percent mortality was observed)
CCCOC1C(OC)C(C)OC(ON=Cc2ccc(-n3cnc(-c4ccc(C(F)(F)F)cc4)n3)cc2)C1OC (stereo not drawn) [Compound 74] | B (either (1) the compound was tested and less than 50 percent mortality was observed or (2) the compound was not tested) | B (either (1) the compound was tested and less than 50 percent mortality was observed or (2) the compound was not tested) | A (the compound was tested and at least 50 percent mortality was observed)
COC1C(C)OC(ON=Cc2ccc(-c3cn(-c4ccc(Cl)cc4)nn3)cc2)C(OC)C1OC (stereo not drawn) [Compound 75] | A (the compound was tested and at least 50 percent mortality was observed) | A (the compound was tested and at least 50 percent mortality was observed) | B (either (1) the compound was tested and less than 50 percent mortality was observed or (2) the compound was not tested)
COC1C(C)OC(ON=Cc2ccc(-c3cn(-c4ccc(C)cc4)nn3)cc2)C(OC)C1OC (stereo not drawn) [Compound 76] | B (either (1) the compound was tested and less than 50 percent mortality was observed or (2) the compound was not tested) | B (either (1) the compound was tested and less than 50 percent mortality was observed or (2) the compound was not tested) | B (either (1) the compound was tested and less than 50 percent mortality was observed or (2) the compound was not tested)
COc1ccc(-n2cc(-c3ccc(C=NOC4OC(C)C(OC)C(OC)C4OC)cc3)nn2)cc1 (stereo not drawn) [Compound 77] | B (either (1) the compound was tested and less than 50 percent mortality was observed or (2) the compound was not tested) | B (either (1) the compound was tested and less than 50 percent mortality was observed or (2) the compound was not tested) | B (either (1) the compound was tested and less than 50 percent mortality was observed or (2) the compound was not tested)
COC1C(C)OC(ON=Cc2ccc(-c3cn(-c4ccc(C(F)(F)F)cc4)nn3)cc2)C(OC)C1OC (stereo not drawn) [Compound 78] | B (either (1) the compound was tested and less than 50 percent mortality was observed or (2) the compound was not tested) | B (either (1) the compound was tested and less than 50 percent mortality was observed or (2) the compound was not tested) | A (the compound was tested and at least 50 percent mortality was observed)
COC1C(C)OC(ON=Cc2ccc(-c3cn(-c4ccc(OC(F)(F)F)cc4)nn3)cc2)C(OC)C1OC (stereo not drawn) [Compound 79] | B (either (1) the compound was tested and less than 50 percent mortality was observed or (2) the compound was not tested) | B (either (1) the compound was tested and less than 50 percent mortality was observed or (2) the compound was not tested) | A (the compound was tested and at least 50 percent mortality was observed)
